Laboratory results: US9815796B2 (Merck Sharp & Dohme Corp., priority 2013, dated 2017)
Read-outs that look alike come from different tables or passages of the source. Each block holds one molecule with its values, some of them ahead of it.

Assays:
human PDE2A1 = human PDE2A1 (Homo sapiens (Human), UniProt O00408); assay: IMAP FP PDE selectivity panel, human PDE2A1; type: biochemical
Summary of the method: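 IMAP FP format: substrate 50 nM FAM-cAMP plus 1000 nM cGMP, enzyme (insect-cell GST-tagged human PDE2A1) at ~20% conversion, 60 min reaction at room temperature. Apparent inhibition constants calculated from parallel/perpendicular fluorescence with KM 10,000 nM.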

Rhesus PDE2A3 = Rhesus PDE2A3 (Macaca mulatta, UniProt B3VTJ2); assay: PDE2 fluorescence polarization (IMAP FP) inhibition assay, rhesus enzyme; type: biochemical, rhesus macaque
Summary of the method: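 IMAP FP (mP from parallel and perpendicular fluorescence against substrate-only control) was read ≥1 h after adding binding reagent. The preceding 60 min room-temperature reaction contained FAM-cAMP (50 nM) and cGMP (1 uM) in pH 7.2 Tris buffer with MgCl2 and DTT. Enzyme was supernatant of sonicated AD293 cells expressing rhesus PDE2A3; compounds were 3-fold titrated, DMSO 1% final.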

[1] = Human PDE2, Lab B, read-out: Human PDE2 Ki (nM) - Lab B
[2] = Rhesus PDE2, Lab B, read-out: Rhesus PDE2 Ki (nM) - Lab B
[3] = Rhesus PDE2, Lab A, read-out: Rhesus PDE2 Ki (nM) - Lab A
[4] = Human PDE2, Lab A, read-out: Human PDE2 Ki (nM) - Lab A

Sequence of Rhesus PDE2A3 (B3VTJ2 1-941): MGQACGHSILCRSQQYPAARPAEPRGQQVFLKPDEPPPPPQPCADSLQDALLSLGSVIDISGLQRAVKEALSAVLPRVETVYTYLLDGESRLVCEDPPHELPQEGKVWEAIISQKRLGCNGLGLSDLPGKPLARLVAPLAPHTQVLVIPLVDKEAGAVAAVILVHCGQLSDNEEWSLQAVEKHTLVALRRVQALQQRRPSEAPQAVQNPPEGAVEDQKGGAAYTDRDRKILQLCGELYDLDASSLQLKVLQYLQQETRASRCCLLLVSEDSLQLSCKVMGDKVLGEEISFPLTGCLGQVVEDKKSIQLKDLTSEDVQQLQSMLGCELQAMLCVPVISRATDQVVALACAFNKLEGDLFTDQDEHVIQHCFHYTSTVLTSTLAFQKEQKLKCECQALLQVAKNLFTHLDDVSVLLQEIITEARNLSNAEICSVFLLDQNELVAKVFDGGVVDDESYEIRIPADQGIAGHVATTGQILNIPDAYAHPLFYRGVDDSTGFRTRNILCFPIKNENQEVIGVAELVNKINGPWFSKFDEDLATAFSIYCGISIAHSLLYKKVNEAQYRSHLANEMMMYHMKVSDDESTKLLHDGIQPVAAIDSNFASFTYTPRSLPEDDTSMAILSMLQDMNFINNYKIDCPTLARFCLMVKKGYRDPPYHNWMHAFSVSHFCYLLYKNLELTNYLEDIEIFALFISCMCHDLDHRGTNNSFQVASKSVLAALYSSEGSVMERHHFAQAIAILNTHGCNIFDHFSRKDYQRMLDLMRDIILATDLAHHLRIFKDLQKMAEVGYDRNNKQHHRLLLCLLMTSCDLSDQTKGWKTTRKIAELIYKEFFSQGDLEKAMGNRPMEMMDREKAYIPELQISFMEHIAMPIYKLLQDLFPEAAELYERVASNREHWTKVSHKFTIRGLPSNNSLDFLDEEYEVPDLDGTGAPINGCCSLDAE
Sequence of human PDE2A1 (O00408 other isoform, or with tags, fused parts or gaps): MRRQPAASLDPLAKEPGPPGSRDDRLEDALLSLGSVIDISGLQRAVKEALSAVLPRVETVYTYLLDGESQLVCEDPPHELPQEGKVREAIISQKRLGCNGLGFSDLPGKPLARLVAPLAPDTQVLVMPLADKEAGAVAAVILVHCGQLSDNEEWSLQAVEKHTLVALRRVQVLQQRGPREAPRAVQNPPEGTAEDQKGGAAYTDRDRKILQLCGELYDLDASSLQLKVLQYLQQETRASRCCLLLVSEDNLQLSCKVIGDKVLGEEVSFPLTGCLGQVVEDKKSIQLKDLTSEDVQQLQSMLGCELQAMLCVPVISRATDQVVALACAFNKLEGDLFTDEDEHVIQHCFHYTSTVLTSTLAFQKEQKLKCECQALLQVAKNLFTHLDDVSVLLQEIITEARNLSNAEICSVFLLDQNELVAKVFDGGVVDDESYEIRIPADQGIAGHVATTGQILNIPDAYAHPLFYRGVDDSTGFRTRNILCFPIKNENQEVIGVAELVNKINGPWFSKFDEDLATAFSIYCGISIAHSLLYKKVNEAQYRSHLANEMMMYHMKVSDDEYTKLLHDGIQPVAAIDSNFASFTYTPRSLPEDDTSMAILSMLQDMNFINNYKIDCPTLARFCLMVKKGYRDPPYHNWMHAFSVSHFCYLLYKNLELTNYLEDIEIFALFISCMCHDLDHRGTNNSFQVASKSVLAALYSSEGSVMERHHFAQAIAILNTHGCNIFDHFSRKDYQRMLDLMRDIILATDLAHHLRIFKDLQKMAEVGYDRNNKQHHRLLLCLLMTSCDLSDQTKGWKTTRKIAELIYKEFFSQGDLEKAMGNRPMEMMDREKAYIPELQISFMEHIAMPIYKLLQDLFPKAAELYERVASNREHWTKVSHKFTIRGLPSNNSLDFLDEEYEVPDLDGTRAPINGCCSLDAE

SMILES: Cc1nc(C(=O)NC(C)(C)c2ccc(SC(F)(F)F)c(F)c2)cc(=O)[nH]1 [Example 259, N-(1-{3-fluoro-4-[(trifluoromethyl)sulfanyl]phenyl}-1-methylethyl)-2-methyl-6-oxo-1,6-dihydropyrimidine-4-carboxamide]
Ki (human PDE2A1; [1]): 179 nM | Ki (Rhesus PDE2A3; [3]): 124 nM | Ki (Rhesus PDE2A3; [2]): 209 nM

SMILES: Cc1nc(C(=O)N[C@@H](c2ccc(OC(F)(F)F)c(F)c2)C(C)(C)C)cc(=O)[nH]1 [Example 60, (R)-N-(1-(3-fluoro-4-(trifluoromethoxy)phenyl)-2,2-dimethylpropyl)-2-methyl-6-oxo-1,6-dihydropyrimidine-4-carboxamide]
Ki (human PDE2A1; [1]): 2.8 nM | Ki (Rhesus PDE2A3; [2]): 4.8 nM

SMILES: C[C@@H](NC(=O)c1cc(=O)[nH]c(-c2ccccc2)n1)c1ccc(OC(F)(F)F)c(F)c1 [Example 154, N-{(1R)-1-[3-fluoro-4-(trifluoromethoxy)phenyl]ethyl}-6-oxo-2-phenyl-1,6-dihydropyrimidine-4-carboxamide]
Ki (human PDE2A1; [4]): 1.5 nM | Ki (Rhesus PDE2A3; [3]): 2.6 nM

SMILES: COc1ccc(Cc2nc(C(=O)N[C@@H](c3ccc(OC(F)(F)F)cc3)C(C)(C)C)cc(=O)[nH]2)cc1F [Example 509, N-{(1R)-2,2-dimethyl-1-[4-(trifluoromethoxy)phenyl]propyl}-2-(3-fluoro-4-methoxybenzyl)-6-oxo-1,6-dihydropyrimidine-4-carboxamide]
Ki (human PDE2A1; [1]): 0.99 nM | Ki (Rhesus PDE2A3; [2]): 0.88 nM

SMILES: CC(C)(C)[C@@H](NC(=O)c1cc(=O)[nH]c(-c2ccccc2)n1)c1ccc(C(F)(F)F)cc1 [Example 337, N-{(1R)-2,2-dimethyl-1-[4-(trifluoromethyl)phenyl]propyl}-6-oxo-2-phenyl-1,6-dihydropyrimidine-4-carboxamide]
Ki (human PDE2A1; [1]): 1.1 nM | Ki (Rhesus PDE2A3; [3]): 0.4 nM | Ki (Rhesus PDE2A3; [2]): 1.2 nM

SMILES: COc1ccc2cc(C(C)NC(=O)c3cc(=O)[nH]c(C)n3)ccc2c1 (single isomer, unassigned) [Example 313, (R)- or (S)-N-[1-(6-methoxynaphthalen-2-yl)ethyl]-2-methyl-6-oxo-1,6-dihydropyrimidine-4-carboxamide]
Ki (human PDE2A1; [4]): 54 nM | Ki (Rhesus PDE2A3; [3]): 51 nM

SMILES: Cc1nc(C(=O)NC2(c3ccc(SC(F)(F)F)c(F)c3)CCC2)cc(=O)[nH]1 [Example 129, N-(1-{3-fluoro-4-[(trifluoromethyl)sulfanyl]phenyl}cyclobutyl)-2-methyl-6-oxo-1,6-dihydropyrimidine-4-carboxamide]
Ki (human PDE2A1; [4]): 184 nM | Ki (Rhesus PDE2A3; [3]): 218 nM

SMILES: COc1cc(C(C)NC(=O)c2cc(=O)[nH]c(-c3ccccc3)n2)ccc1C(F)(F)F (stereo not drawn) [Example 155]
Ki (human PDE2A1; [4]): 143 nM | Ki (Rhesus PDE2A3; [3]): 119 nM

SMILES: C[C@@H](NC(=O)c1cc(=O)[nH]c(-c2ncccn2)n1)c1ccc(-c2ccccc2)cc1 [Example 287, N-[(1R)-1-biphenyl-4-ylethyl]-6-oxo-1,6-dihydro-2,2′-bipyrimidine-4-carboxamide]
Ki (human PDE2A1; [4]): 28 nM | Ki (Rhesus PDE2A3; [3]): 45 nM

SMILES: Cc1cc(C(F)(F)F)ccc1C(C)NC(=O)c1cc(=O)[nH]c(-c2ccccc2)n1 (stereo not drawn) [Example 173, N-{1-[2-methyl-4-(trifluoromethyl)phenyl]ethyl}-6-oxo-2-phenyl-1,6-dihydropyrimidine-4-carboxamide]
Ki (human PDE2A1; [4]): 76 nM | Ki (Rhesus PDE2A3; [3]): 90 nM

SMILES: CCc1ccc(C(C)NC(=O)c2cc(=O)[nH]c(-c3ccccc3)n2)cc1 (stereo not drawn) [Example 165, N-[1-(4-ethylphenyl)ethyl]-6-oxo-2-phenyl-1,6-dihydropyrimidine-4-carboxamide]
Ki (human PDE2A1; [4]): 12 nM | Ki (Rhesus PDE2A3; [3]): 16 nM

SMILES: COc1ccc(Cc2nc(C(=O)N[C@H](C)c3ccc(C(F)(F)F)cc3)cc(=O)[nH]2)cc1OC [Example 4, 2-(3,4-dimethoxybenzyl)-6-oxo-N-{(1R)-1-[4-(trifluoromethyl)phenyl]ethyl}-1,6-dihydropyrimidine-4-carboxamide]
Ki (human PDE2A1; [4]): 0.52 nM | Ki (Rhesus PDE2A3; [3]): 0.56 nM

SMILES: O=C(NC1(c2ccc(C(F)(F)F)cc2)CCC1)c1cc(=O)[nH]c(-c2ccccc2)n1 [Example 278, 6-oxo-2-phenyl-N-{1-[4-(trifluoromethyl)phenyl]cyclobutyl}-1,6-dihydropyrimidine-4-carboxamide]
Ki (human PDE2A1; [4]): 12 nM | Ki (Rhesus PDE2A3; [3]): 18 nM

SMILES: O=C(NC1(c2ccc(C(F)(F)F)cc2)CC1)c1cc(=O)[nH]c(-c2ccccc2)n1 [Example 276, 6-oxo-2-phenyl-N-{1-[4-(trifluoromethyl)phenyl]cyclopropyl}-1,6-dihydropyrimidine-4-carboxamide]
Ki (human PDE2A1; [4]): 3.8 nM | Ki (Rhesus PDE2A3; [3]): 4.2 nM

The next lines start with the values.

Ki (human PDE2A1; [1]): > 1240 nM | Ki (Rhesus PDE2A3; [2]): > 2970 nM
SMILES: Cc1nc(C(=O)NC(C)c2ccc(C(C)(C)C(F)(F)F)cc2)cc(=O)[nH]1 (single isomer, unassigned) [Example 694, (S)- or (R)-2-methyl-6-oxo-N-(1-(4-(1,1,1-trifluoro-2-methylpropan-2-yl)phenyl)ethyl)-1,6-dihydropyrimidine-4-carboxamide]

Ki (human PDE2A1; [1]): 2.7 nM | Ki (Rhesus PDE2A3; [3]): 1.7 nM | Ki (Rhesus PDE2A3; [2]): 2.5 nM
SMILES: CC(C)[C@@H](NC(=O)c1cc(=O)[nH]c(C2CC2)n1)c1ccc(S(F)(F)(F)(F)F)cc1 [Example 247, 2-cyclopropyl-N-{(1R)-2-methyl-1-[4-(pentafluoro-λ^6-sulfanyl)phenyl]propyl}-6-oxo-1,6-dihydropyrimidine-4-carboxamide]

Ki (human PDE2A1; [4]): ~6.1 nM | Ki (human PDE2A1; [1]): 20 nM | Ki (Rhesus PDE2A3; [3]): 18 nM | Ki (Rhesus PDE2A3; [2]): 18 nM
SMILES: CC[C@@H](NC(=O)c1cc(=O)[nH]c(C)n1)c1ccc(S(F)(F)(F)(F)F)cc1 [Example 51, 2-methyl-6-oxo-N-{(1R)-1-[4-(pentafluoro-λ^6-sulfanyl)phenyl]propyl}-1,6-dihydropyrimidine-4-carboxamide]

Ki (human PDE2A1; [1]): 3.5 nM | Ki (Rhesus PDE2A3; [3]): 2 nM | Ki (Rhesus PDE2A3; [2]): 3.4 nM
SMILES: CC(C)[C@@H](NC(=O)c1cc(=O)[nH]c(-c2ncccn2)n1)c1ccc(C(F)(F)F)c(F)c1 [Example 248, N-{(1R)-1-[3-fluoro-4-(trifluoromethyl)phenyl]-2-methylpropyl}-6-oxo-1,6-dihydro-2,2′-bipyrimidine-4-carboxamide]

Ki (human PDE2A1; [1]): 9.2 nM | Ki (Rhesus PDE2A3; [3]): 5 nM | Ki (Rhesus PDE2A3; [2]): 10 nM
SMILES: CC[C@@H](NC(=O)c1cc(=O)[nH]c(C2CC2)n1)c1ccc(S(F)(F)(F)(F)F)cc1 [Example 242, 2-cyclopropyl-6-oxo-N-{(1R)-1-[4-(pentafluoro-λ^6-sulfanyl)phenyl]propyl}-1,6-dihydropyrimidine-4-carboxamide]

Ki (human PDE2A1; [4]): 2.2 nM | Ki (human PDE2A1; [1]): 3.9 nM | Ki (Rhesus PDE2A3; [3]): 3.6 nM | Ki (Rhesus PDE2A3; [2]): 4.7 nM
SMILES: CC(C)[C@@H](NC(=O)c1cc(=O)[nH]c(-c2ccccc2)n1)c1ccc(OC(F)(F)F)c(F)c1 [Example 127, N-{(1R)-1-[3-fluoro-4-(trifluoromethoxy)phenyl]-2-methylpropyl}-6-oxo-2-phenyl-1,6-dihydropyrimidine-4-carboxamide]

Ki (human PDE2A1; [4]): ~14 nM | Ki (human PDE2A1; [1]): 29 nM | Ki (Rhesus PDE2A3; [3]): 25 nM | Ki (Rhesus PDE2A3; [2]): 29 nM
SMILES: Cc1nc(C(=O)N[C@@H](c2ccc(OC(F)(F)F)cc2)C2CC2)cc(=O)[nH]1 [Example 70, N-{(R)-cyclopropyl[4-(trifluoromethoxy)phenyl]methyl}-2-methyl-6-oxo-1,6-dihydropyrimidine-4-carboxamide]

Ki (human PDE2A1; [1]): 3.8 nM | Ki (Rhesus PDE2A3; [3]): 2.6 nM | Ki (Rhesus PDE2A3; [2]): 4 nM
SMILES: CC[C@@H](NC(=O)c1cc(=O)[nH]c(-c2ncccn2)n1)c1ccc(S(F)(F)(F)(F)F)cc1 [Example 257, 6-oxo-N-{(1R)-1-[4-(pentafluoro-λ^6-sulfanyl)phenyl]propyl}-1,6-dihydro-2,2′-bipyrimidine-4-carboxamide]

Ki (human PDE2A1; [4]): 5.8 nM | Ki (Rhesus PDE2A3; [3]): 11 nM
SMILES: Cc1nc(C(=O)N[C@H](C)c2ccc(SC(F)(F)F)cc2)cc(=O)[nH]1 [Example 66, 2-methyl-6-oxo-N-[(1R)-1-{4-[(trifluoromethyl)sulfanyl]phenyl}ethyl]-1,6-dihydropyrimidine-4-carboxamide]

Ki (human PDE2A1; [4]): 1.2 nM | Ki (Rhesus PDE2A3; [3]): 3.4 nM
SMILES: CC(C)[C@@H](NC(=O)c1cc(=O)[nH]c(C2CC2)n1)c1ccc(OC(F)(F)F)cc1 [Example 191, 2-cyclopropyl-N-{(1R)-2-methyl-1-[4-(trifluoromethoxy)phenyl]propyl}-6-oxo-1,6-dihydropyrimidine-4-carboxamide]

Ki (human PDE2A1; [4]): 43 nM | Ki (human PDE2A1; [1]): 38 nM | Ki (Rhesus PDE2A3; [3]): 54 nM
SMILES: CCc1nc(C(=O)N[C@H](C)c2ccc(C(F)(F)F)cc2)cc(=O)[nH]1 [Example 134, 2-ethyl-6-oxo-N-{(1R)-1-[4-(trifluoromethyl)phenyl]ethyl}-1,6-dihydropyrimidine-4-carboxamide]

Ki (human PDE2A1; [4]): 76 nM | Ki (Rhesus PDE2A3; [3]): 91 nM
SMILES: Cc1nc(C(=O)N[C@H](C)c2ccc(OC(F)F)cc2)cc(=O)[nH]1 [Example 304, (R)-N-(1-(4-(difluoromethoxy)phenyl)ethyl)-2-methyl-6-oxo-1,6-dihydropyrimidine-4-carboxamide]

Ki (human PDE2A1; [1]): 7.2 nM | Ki (Rhesus PDE2A3; [2]): 8.7 nM
SMILES: Cc1nc(C(=O)NC(c2ccc(SC(F)(F)F)c(F)c2)C2(C)CC2)cc(=O)[nH]1 (single isomer, unassigned) [Example 702, (R)- or (S)-N-((3-fluoro-4-((trifluoromethyl)thio)phenyl)(1-methylcyclopropyl)methyl)-2-methyl-6-oxo-1,6-dihydropyrimidine-4-carboxamide]

Ki (human PDE2A1; [1]): 1.7 nM | Ki (Rhesus PDE2A3; [2]): 1.6 nM
SMILES: COc1ccc(Cc2nc(C(=O)N[C@@H](c3ccc(C(F)(F)F)c(F)c3)C(C)C)cc(=O)[nH]2)cc1 [Example 472, N-{(1R)-1-[3-fluoro-4-(trifluoromethyl)phenyl]-2-methylpropyl}-2-(4-methoxybenzyl)-6-oxo-1,6-dihydropyrimidine-4-carboxamide]
